# Tests used:
# [1] = target: Tyrosine-protein kinase Fer (Homo sapiens) (UniProt P16591); assay: Selectivity interaction (Kinase panel (Z-LYTE Assay)) EUB0001632a FER; details: at 10 µM
# [2] = target: Thromboxane-A synthase (Homo sapiens) (UniProt P24557); assay: Selectivity interaction (Eurofins safety panel) EUB0001564a CYP5A1; details: at 10 µM
# [3] = target: Protein kinase C alpha type (Homo sapiens, UniProt P17252); assay: Selectivity interaction (SelectScreen profiling (Invitrogen)) EUB0000607a PRKCA; details: at 2 µM
# [4] = target: ALK tyrosine kinase receptor (Homo sapiens, UniProt Q9UM73); details: at 10 µM
# Sequence of ALK tyrosine kinase receptor (Q9UM73 19-1620 limits assumed): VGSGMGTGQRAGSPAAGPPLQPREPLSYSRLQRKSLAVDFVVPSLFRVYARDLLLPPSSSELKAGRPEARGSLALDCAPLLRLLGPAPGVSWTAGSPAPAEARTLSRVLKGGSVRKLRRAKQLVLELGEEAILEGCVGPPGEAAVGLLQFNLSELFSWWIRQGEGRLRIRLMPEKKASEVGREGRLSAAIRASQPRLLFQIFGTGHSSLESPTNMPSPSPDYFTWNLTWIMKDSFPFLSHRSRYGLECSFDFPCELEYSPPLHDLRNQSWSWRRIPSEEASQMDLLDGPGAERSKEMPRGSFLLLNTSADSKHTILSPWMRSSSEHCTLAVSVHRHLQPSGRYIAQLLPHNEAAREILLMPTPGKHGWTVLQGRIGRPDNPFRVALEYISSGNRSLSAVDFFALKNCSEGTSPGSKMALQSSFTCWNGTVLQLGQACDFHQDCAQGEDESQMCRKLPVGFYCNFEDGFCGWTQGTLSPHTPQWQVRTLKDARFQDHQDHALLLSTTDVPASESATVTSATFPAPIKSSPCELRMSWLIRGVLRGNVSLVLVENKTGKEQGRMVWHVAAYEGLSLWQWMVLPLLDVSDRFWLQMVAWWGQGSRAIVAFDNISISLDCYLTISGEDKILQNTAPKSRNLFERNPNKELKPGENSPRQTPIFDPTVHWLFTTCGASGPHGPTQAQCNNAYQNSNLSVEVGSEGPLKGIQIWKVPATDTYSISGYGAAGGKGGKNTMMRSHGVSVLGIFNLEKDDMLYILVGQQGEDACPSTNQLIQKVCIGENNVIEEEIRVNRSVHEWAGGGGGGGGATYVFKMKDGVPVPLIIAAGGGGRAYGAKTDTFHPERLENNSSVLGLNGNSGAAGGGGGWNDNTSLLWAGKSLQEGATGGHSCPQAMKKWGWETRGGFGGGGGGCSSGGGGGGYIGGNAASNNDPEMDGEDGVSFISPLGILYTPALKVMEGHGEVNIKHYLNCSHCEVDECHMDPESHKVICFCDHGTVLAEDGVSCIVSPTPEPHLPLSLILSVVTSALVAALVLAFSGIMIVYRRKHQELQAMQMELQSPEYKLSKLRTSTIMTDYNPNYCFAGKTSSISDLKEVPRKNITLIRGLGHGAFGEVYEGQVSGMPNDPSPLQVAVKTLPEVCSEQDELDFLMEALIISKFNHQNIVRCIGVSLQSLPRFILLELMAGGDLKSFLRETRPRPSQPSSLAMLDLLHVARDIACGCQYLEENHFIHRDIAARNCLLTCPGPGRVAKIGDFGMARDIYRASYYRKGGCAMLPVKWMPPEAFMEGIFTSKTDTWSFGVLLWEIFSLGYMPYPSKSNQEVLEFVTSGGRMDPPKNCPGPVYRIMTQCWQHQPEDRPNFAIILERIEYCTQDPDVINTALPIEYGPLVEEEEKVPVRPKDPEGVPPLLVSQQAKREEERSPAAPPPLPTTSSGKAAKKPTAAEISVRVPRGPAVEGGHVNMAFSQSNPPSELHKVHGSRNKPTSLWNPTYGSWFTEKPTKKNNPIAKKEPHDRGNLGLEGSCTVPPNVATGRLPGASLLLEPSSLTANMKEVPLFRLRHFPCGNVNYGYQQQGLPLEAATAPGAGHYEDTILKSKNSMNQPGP
# [5] = target: T1, Serine/threonine-protein kinase D3 (Homo sapiens) (UniProt O94806); assay: Selectivity interaction (KinomeScan (DiscoverX)) EUB0001049a PRKD3; details: at 1 µM
# T1 sequence (whole entry): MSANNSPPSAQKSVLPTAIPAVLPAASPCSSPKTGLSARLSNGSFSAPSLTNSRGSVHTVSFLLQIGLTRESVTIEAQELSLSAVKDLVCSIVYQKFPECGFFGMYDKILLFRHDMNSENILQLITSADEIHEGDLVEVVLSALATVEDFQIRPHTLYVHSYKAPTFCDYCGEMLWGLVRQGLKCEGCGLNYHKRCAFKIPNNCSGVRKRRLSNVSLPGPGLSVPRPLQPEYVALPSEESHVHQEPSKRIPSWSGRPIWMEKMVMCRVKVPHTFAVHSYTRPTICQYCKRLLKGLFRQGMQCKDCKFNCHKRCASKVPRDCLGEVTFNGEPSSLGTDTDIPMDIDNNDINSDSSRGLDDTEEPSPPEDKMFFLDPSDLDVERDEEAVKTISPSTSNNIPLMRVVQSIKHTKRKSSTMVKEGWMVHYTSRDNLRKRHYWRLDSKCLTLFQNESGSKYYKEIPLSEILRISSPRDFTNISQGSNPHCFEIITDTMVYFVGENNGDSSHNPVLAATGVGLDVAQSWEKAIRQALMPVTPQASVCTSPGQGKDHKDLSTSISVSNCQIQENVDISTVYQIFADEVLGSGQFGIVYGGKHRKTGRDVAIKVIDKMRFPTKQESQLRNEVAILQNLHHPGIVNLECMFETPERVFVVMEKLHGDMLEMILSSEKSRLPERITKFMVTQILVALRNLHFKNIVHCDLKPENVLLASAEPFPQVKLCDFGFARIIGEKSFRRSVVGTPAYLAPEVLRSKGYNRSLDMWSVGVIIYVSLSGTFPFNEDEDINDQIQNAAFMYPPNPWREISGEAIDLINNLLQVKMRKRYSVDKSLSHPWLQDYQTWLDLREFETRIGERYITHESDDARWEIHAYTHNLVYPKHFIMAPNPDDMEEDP
# [6] = target: T2, Serine/threonine-protein kinase RIO3 (Homo sapiens) (UniProt O14730); assay: Selectivity interaction (KinomeScan (DiscoverX)) EUB0000045b RIOK3
# T2 sequence (whole entry): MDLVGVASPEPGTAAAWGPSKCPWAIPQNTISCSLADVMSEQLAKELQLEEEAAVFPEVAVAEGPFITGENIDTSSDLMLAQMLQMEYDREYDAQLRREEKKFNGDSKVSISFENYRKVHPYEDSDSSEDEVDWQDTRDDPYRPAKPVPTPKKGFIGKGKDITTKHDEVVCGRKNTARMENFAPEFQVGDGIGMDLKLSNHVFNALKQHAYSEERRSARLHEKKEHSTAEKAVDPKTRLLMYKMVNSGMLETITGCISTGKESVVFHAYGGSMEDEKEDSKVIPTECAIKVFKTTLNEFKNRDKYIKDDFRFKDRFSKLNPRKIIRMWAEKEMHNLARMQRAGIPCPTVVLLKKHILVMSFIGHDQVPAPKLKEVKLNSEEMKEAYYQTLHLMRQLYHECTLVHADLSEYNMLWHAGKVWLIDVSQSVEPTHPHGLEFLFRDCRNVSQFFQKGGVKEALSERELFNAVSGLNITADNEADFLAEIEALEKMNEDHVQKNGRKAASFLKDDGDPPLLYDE
# [7] = system: Epidermal growth factor receptor (Homo sapiens), P00533 [UNDEFINED MUTATION]; assay: Selectivity interaction (KinomeScan (DiscoverX)) EUB0000045b EGFR; details: at 1 µM
# [8] = target: Insulin receptor (Homo sapiens, UniProt P06213); assay: Selectivity interaction (KinomeScan (DiscoverX)) EUB0001079a INSR; details: at 1 µM
# Sequence of Insulin receptor (P06213 28-758 limits assumed): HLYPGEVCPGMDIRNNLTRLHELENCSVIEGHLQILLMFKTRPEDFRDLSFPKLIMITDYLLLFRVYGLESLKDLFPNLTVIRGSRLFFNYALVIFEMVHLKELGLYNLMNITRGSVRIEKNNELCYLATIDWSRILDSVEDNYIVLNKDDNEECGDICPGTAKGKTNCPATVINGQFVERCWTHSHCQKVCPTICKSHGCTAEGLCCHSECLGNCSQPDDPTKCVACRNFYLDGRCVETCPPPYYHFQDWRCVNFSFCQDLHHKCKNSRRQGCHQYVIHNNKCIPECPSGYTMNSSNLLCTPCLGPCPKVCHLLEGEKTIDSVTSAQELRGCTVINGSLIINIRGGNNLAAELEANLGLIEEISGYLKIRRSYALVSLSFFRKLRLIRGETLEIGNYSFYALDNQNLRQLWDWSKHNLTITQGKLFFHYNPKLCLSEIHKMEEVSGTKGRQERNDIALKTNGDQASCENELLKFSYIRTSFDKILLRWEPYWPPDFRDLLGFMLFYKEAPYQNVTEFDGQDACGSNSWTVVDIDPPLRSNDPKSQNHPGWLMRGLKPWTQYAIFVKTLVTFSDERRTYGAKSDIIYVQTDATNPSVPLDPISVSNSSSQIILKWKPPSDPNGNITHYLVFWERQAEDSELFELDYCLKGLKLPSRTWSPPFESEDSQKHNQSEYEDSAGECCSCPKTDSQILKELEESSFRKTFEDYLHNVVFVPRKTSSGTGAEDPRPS
# Sequence of Insulin receptor (P06213 763-1382 limits assumed): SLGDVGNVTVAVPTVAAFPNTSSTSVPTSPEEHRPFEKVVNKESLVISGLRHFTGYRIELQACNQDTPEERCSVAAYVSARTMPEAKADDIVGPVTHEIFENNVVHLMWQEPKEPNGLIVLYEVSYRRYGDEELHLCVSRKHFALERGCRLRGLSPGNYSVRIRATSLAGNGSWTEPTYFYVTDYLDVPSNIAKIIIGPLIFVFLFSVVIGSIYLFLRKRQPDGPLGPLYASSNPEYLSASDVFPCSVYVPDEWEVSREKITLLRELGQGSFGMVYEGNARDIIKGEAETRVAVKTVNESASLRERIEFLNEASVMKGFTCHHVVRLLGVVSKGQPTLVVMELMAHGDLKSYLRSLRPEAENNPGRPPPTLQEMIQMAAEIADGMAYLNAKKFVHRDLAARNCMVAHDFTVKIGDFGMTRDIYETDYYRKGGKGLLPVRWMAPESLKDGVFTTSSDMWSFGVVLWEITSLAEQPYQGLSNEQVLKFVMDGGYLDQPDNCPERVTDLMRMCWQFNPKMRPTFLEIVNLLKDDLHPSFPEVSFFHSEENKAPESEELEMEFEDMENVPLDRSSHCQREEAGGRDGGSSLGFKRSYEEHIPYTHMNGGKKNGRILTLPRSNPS
# [9] = target: Tyrosine-protein kinase JAK2 (Homo sapiens, UniProt O60674); assay: Selectivity interaction (KinomeScan (DiscoverX)) EUB0000092b JAK2; details: at 10 µM
# [10] = target: TRAF2 and NCK-interacting protein kinase (Homo sapiens) (UniProt Q9UKE5); assay: Selectivity interaction (KinomeScan (DiscoverX)) EUB0000618a TNIK; details: at 10 µM
# Sequence of TRAF2 and NCK-interacting protein kinase (Homo sapiens) (Q9UKE5 whole entry, looked up): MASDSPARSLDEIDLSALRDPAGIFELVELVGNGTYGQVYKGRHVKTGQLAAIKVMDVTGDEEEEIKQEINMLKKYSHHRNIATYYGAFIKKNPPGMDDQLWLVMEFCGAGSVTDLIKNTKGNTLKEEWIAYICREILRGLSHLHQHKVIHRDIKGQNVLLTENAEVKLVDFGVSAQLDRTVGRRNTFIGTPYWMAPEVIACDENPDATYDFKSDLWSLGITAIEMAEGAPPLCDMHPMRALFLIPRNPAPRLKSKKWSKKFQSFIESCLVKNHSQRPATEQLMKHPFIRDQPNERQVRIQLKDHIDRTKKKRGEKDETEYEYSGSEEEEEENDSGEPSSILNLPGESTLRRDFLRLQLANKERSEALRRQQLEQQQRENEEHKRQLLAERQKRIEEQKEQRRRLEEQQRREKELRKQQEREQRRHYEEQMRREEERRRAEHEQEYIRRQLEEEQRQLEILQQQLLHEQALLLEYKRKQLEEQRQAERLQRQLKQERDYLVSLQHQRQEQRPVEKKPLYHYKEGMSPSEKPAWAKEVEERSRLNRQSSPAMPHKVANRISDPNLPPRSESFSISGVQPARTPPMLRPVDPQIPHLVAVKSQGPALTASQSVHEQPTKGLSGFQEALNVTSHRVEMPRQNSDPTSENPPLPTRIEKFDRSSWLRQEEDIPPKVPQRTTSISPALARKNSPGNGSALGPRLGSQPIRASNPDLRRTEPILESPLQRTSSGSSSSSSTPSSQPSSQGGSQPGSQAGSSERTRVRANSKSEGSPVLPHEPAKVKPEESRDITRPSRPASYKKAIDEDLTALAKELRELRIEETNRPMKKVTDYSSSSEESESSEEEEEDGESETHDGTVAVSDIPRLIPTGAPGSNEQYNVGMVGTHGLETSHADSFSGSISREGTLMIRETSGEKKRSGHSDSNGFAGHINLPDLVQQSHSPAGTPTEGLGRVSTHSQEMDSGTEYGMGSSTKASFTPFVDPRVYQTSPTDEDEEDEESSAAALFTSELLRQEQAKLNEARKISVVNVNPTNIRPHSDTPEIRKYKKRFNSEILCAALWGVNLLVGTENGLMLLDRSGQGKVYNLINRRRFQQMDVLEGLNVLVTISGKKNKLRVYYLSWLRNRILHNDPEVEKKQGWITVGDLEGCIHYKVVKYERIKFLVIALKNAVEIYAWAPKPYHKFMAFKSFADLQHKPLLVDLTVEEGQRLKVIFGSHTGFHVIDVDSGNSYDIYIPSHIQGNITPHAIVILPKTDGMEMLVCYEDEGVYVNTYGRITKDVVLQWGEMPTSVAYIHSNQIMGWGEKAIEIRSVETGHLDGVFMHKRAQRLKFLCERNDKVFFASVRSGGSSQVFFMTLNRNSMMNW
# [11] = target: Protein-tyrosine kinase 2-beta (Homo sapiens) (UniProt Q14289); assay: Selectivity interaction (KinomeScan (DiscoverX)) EUB0000618a PTK2B; details: at 10 µM
# [12] = target: Transient receptor potential cation channel subfamily M member 6 (Homo sapiens) (UniProt Q9BX84); assay: Selectivity interaction (KinomeScan (DiscoverX)) EUB0000618a TRPM6; details: at 10 µM
# [13] = target: Ribosomal protein S6 kinase alpha-1 (Homo sapiens, UniProt Q15418); assay: Selectivity interaction (ActivX KiNativ screen (ex vivo kinase selectivity in human PBMCs)) EUB0001619a RPS6KA1; format: cell-based; details: PBMC, at 1 µM
# Sequence of Ribosomal protein S6 kinase alpha-1 (Q15418 whole entry): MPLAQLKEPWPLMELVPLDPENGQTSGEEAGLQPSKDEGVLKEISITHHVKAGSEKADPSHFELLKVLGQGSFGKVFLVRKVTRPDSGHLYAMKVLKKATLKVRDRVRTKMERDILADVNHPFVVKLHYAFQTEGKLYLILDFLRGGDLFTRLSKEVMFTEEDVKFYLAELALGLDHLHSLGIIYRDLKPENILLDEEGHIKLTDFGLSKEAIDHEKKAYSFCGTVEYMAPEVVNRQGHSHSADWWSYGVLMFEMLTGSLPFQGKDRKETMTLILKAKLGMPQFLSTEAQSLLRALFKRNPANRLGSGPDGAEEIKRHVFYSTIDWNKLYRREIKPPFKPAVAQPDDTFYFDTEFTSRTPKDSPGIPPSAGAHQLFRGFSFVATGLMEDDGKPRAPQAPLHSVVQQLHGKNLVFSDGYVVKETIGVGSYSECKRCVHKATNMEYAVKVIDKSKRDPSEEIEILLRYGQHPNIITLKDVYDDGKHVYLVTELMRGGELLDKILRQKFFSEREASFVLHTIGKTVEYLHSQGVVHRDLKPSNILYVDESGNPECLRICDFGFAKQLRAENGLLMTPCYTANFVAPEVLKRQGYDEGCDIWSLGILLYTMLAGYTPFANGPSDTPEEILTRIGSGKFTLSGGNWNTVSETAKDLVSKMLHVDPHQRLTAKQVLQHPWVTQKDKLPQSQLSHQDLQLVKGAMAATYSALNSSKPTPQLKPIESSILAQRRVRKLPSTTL
# [14] = target: Serine/threonine-protein kinase 38 (Homo sapiens) (UniProt Q15208); assay: Selectivity interaction (KinomeScan (DiscoverX)) EUB0001619a STK38; details: at 1 µM
smiles,measurement,setting,value
Cn1cc(-n2cnc3c(NCc4nc5cc(Cl)c(Cl)cc5[nH]4)nc(N4CCOCC4)nc32)cn1,% of control,[1],3.17%
CC[C@@H](Nc1c(C#N)c(-c2ccc(-c3cccc(C)c3F)cc2)nc2cnccc12)C(=O)O [BAY-091],% of inhibition,[2],98%
CNC(=O)Nc1ccc(-c2nc(N3CC4CCC(C3)O4)c3cnn(C4CCC5(CC4)OCCO5)c3n2)cc1,% of inhibition,[3],10%
CCN(CC)CCCCNc1ncc2cc(-c3cc(OC)cc(OC)c3)c(NC(=O)NC(C)(C)C)nc2n1,% of control,[4],100%
COc1cc(Nc2nc(C)cc(-c3cnn4nc(OC)ccc34)n2)cc(C(F)(F)F)c1,% of control,[5],100%
C=CC(=O)Nc1cc(-n2c(=O)ccc3cnc4ccc(-c5ccc(NS(C)(=O)=O)cc5)cc4c32)ccc1C,% of control,[6]; at 1 µM,55%
same,% of control,[6]; at 10 µM,60%
same,% of control,[7],66%
Nc1cnc(N2CCc3cc(S(=O)(=O)Nc4c(F)cc(Cl)cc4F)cc(N4CCCC4=O)c32)nc1 [TP-020n],% of control,[8],89%
CCC(=O)N1CCN(c2ccc(-n3c(=O)ccc4cnc5ccc(-c6cnc7ccccc7c6)cc5c43)cc2C(F)(F)F)CC1,% of control,[9],65%
O[C@H]1CC[C@H](Nc2ncc3nc(Nc4c(F)cc(F)cc4F)n([C@H]4CCOC4)c3n2)CC1,% of control,[10],83%
same,% of control,[11],91%
same,% of control,[12],100%
N#Cc1cccc(-c2c[nH]c3ncnc(N4CCOCC4)c23)c1,% of inhibition,[13],-3%
same,% of control,[14],89%
